Experimental data taken from PubChem BioAssay (NCI).
Values joined by “and” are separate entries in the source; they are usually repeats but may differ in a detail not shown here. Equal entries are not always repeated.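 Each compound was tested at five concentrations against cells in 96-well plates for 48 hours. GI50: concentration for 50% inhibition of growth. TGI: total growth inhibition.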 Where a SMILES comes first, the peptide text is derived from it. The star is where a group is joined. Fmoc = O=C(OCC1c2ccccc2-c2ccccc21)*; Boc = CC(C)(C)OC(=O)*; OtBu = CC(C)(C)O*

Assays:
Assay in all cases: growth of human tumour cells (NCI), 48 h
[1] = tested on: MCF7 breast
[2] = tested on: DU-145 prostate
[3] = tested on: 786-0 renal
[4] = tested on: UACC-257 melanoma
[5] = tested on: MALME-3M melanoma
[6] = tested on: SNB-75 CNS
[7] = tested on: OVCAR-8 ovarian
[8] = tested on: NCI-H522 lung
[9] = tested on: HL-60(TB) leukemia
[10] = tested on: LOX IMVI melanoma
[11] = tested on: COLO 205 colon
[12] = tested on: K-562 leukemia
[13] = tested on: MDA-MB-435
[14] = tested on: UO-31 renal
[15] = tested on: HOP-62 NSCLC
[16] = tested on: OVCAR-5 ovarian
[17] = tested on: HOP-92 NSCLC
[18] = tested on: CAKI-1 renal
[19] = tested on: OVCAR-3 ovarian
[20] = tested on: SK-MEL-2 melanoma
[21] = tested on: CCRF-CEM leukemia
[22] = tested on: SF-539 CNS
[23] = tested on: SNB-19 CNS
[24] = tested on: NCI/ADR-RES ovarian
[25] = tested on: ACHN renal
[26] = tested on: HCT-116 colon
[27] = tested on: RPMI-8226 leukemia
[28] = tested on: NCI-H226 lung
[29] = tested on: SK-MEL-28 melanoma
[30] = tested on: A498 renal
[31] = tested on: SF-268 CNS
[32] = tested on: A549 NSCLC
[33] = tested on: MDA-N
[34] = tested on: BT-549 breast
[35] = tested on: MOLT-4 leukemia
[36] = tested on: EKVX NSCLC
[37] = tested on: SR leukemia
[38] = tested on: OVCAR-4 ovarian
[39] = tested on: TK-10 renal
[40] = tested on: SF-295 CNS
[41] = tested on: U251 CNS
[42] = tested on: MDA-MB-231 breast
[43] = tested on: SN12C renal
[44] = tested on: M14 melanoma
[45] = tested on: PC-3 prostate
[46] = tested on: NCI-H23 lung
[47] = tested on: T-47D breast
[48] = tested on: KM12 colon
[49] = tested on: RXF 393 renal
[50] = tested on: HT29 colon
[51] = tested on: SK-MEL-5 melanoma
[52] = tested on: HS 578T breast
[53] = tested on: IGROV1 ovarian
[54] = tested on: UACC-62 melanoma
[55] = tested on: SW-620 colon
[56] = tested on: SK-OV-3 ovarian
[57] = tested on: HCT-15 colon
[58] = tested on: NCI-H460 lung
[59] = tested on: HCC-2998 colon

Cc1cn(C2CC(Br)C(COC(c3ccccc3)(c3ccccc3)c3ccccc3)O2)c(=O)[nH]c1=O (centres undefined)
TGI [1]: 22.4 µM | TGI [2]: 27.7 µM | TGI [3]: 27.4 µM | TGI [4]: 29.8 µM | TGI [5]: 32.4 µM | TGI [6]: 24.3 µM | TGI [7]: 23.2 µM | TGI [8]: 19.8 µM | TGI [9]: > 100 µM | TGI [10]: 24.4 µM | TGI [11]: 27.1 µM | TGI [12]: > 100 µM | TGI [13]: 30.1 µM | TGI [14]: 19.5 µM | TGI [15]: 31 µM | TGI [16]: 30.4 µM | TGI [17]: 24.6 µM | TGI [18]: 29.2 µM | TGI [19]: 25.2 µM | TGI [20]: 28.7 µM | TGI [21]: 24.1 µM | TGI [22]: 31.6 µM | TGI [23]: 29.9 µM | TGI [24]: 28.9 µM | TGI [25]: 26.8 µM | TGI [26]: 20.5 µM | TGI [27]: 20.6 µM | TGI [28]: 34.2 µM | TGI [29]: 30.3 µM | TGI [30]: 29.9 µM | TGI [31]: 28.4 µM | TGI [32]: 23.8 µM | TGI [33]: 28.2 µM | TGI [34]: 24.4 µM | TGI [35]: 28.8 µM | TGI [36]: 28.9 µM | TGI [37]: 23.1 µM | TGI [38]: 25.8 µM | TGI [39]: 28 µM | TGI [40]: 21.7 µM | TGI [41]: 24.9 µM | TGI [42]: 33.5 µM | TGI [43]: 27.8 µM | TGI [44]: 26.7 µM | TGI [45]: 17.7 µM | TGI [46]: 20 µM | TGI [47]: 26.3 µM | TGI [48]: 19.4 µM | TGI [49]: 23.5 µM | TGI [50]: 23.4 µM | TGI [51]: 25.5 µM | TGI [52]: 32.8 µM | TGI [53]: 27.9 µM | TGI [54]: 24.8 µM | TGI [55]: 28.5 µM

CC(C)(C)OC(=O)CCC(NC(=O)OCC1c2ccccc2-c2ccccc21)C(=O)NC(Cc1c[nH]c2ccccc12)C(=O)NC(CCCCNC(=O)OC(C)(C)C)C(=O)N1CCCC1C(=O)NCC(N)=O (centres undefined) (Fmoc-E(OtBu)WK(Boc)PG-NH2; configuration not given here)
TGI [1]: > 100 µM | TGI [56]: > 100 µM and 93.9 µM | GI50 [2]: 16.1 µM and > 100 µM | TGI [2]: 29.6 µM and > 100 µM | TGI [3]: 31.3 µM and 34.9 µM | GI50 [4]: 40.4 µM and 94.9 µM | TGI [4]: > 100 µM | TGI [5]: 33.9 µM and 78.9 µM | GI50 [57]: 12.5 µM and 73.9 µM | TGI [57]: 24.9 µM and > 100 µM | TGI [6]: 52.1 µM and 29.9 µM | TGI [7]: 33.4 µM and > 100 µM | TGI [8]: 4.16 µM | GI50 [9]: 3.8 µM and 33.5 µM | TGI [9]: > 100 µM | TGI [10]: 24.5 µM and 44.7 µM | GI50 [11]: 17.1 µM and 41.9 µM | TGI [11]: 32.7 µM and > 100 µM | TGI [12]: > 100 µM | GI50 [13]: 18 µM and 42.7 µM | TGI [13]: 31.9 µM and > 100 µM | GI50 [14]: 3.85 µM and 14.4 µM | TGI [14]: 14.7 µM and 28.1 µM | GI50 [15]: 18 µM and 42.2 µM | TGI [15]: 31.8 µM and > 100 µM | GI50 [16]: 45.6 µM and > 100 µM | TGI [16]: > 100 µM | TGI [58]: 30.4 µM and 68.9 µM | TGI [59]: > 100 µM | TGI [17]: 31.4 µM and 35.7 µM | TGI [19]: 37.4 µM and 51 µM | TGI [20]: 39.2 µM and 33.5 µM | GI50 [21]: 67.3 µM and 31.5 µM | TGI [21]: > 100 µM and 73.7 µM | TGI [22]: > 100 µM | TGI [23]: 72.9 µM and 40.6 µM | GI50 [24]: 16.9 µM and 68.5 µM | TGI [24]: 30.6 µM and > 100 µM | TGI [25]: 30 µM and 35 µM | GI50 [26]: 18.3 µM and 48.1 µM | TGI [26]: 32.2 µM and > 100 µM | TGI [27]: 35.6 µM and > 100 µM | GI50 [28]: 15.3 µM and 78.8 µM | TGI [28]: 32.5 µM and > 100 µM | TGI [29]: > 100 µM | GI50 [31]: 21.5 µM and 44.7 µM | TGI [31]: 37.2 µM and > 100 µM | GI50 [32]: 17.6 µM and > 100 µM | TGI [32]: 31.5 µM and > 100 µM | TGI [33]: 31.6 µM and > 100 µM | TGI [34]: 29.5 µM and 38.3 µM | TGI [35]: 61.7 µM and 81.7 µM | GI50 [36]: 17.9 µM and > 100 µM | TGI [36]: 34.8 µM and > 100 µM | TGI [37]: 52.7 µM and > 100 µM | TGI [38]: 25.5 µM and 31.2 µM | GI50 [39]: 36.5 µM and > 100 µM | TGI [39]: > 100 µM | TGI [40]: > 100 µM | TGI [41]: 31.1 µM and 31 µM | TGI [42]: 25.2 µM and 28.9 µM | GI50 [43]: 18.3 µM and 67.4 µM | TGI [43]: 32.2 µM and > 100 µM | TGI [44]: 90.5 µM and > 100 µM | GI50 [45]: 16.4 µM and > 100 µM | TGI [45]: 29.9 µM and > 100 µM | GI50 [46]: 14.2 µM and 32.7 µM | TGI [46]: 27.2 µM and > 100 µM | TGI [47]: > 100 µM | GI50 [48]: 16.2 µM and 35.9 µM | TGI [48]: 33.1 µM and > 100 µM | TGI [49]: 28.3 µM and 50.4 µM | TGI [50]: > 100 µM | TGI [51]: 29.7 µM and > 100 µM | TGI [52]: 59.3 µM and 76.1 µM | TGI [53]: 29.5 µM and > 100 µM | TGI [54]: 28.2 µM and 39.9 µM | GI50 [55]: 19 µM and 46.9 µM | TGI [55]: 33.6 µM and > 100 µM
